Measurements as given in ChEMBL document CHEMBL1201862, “PubChem BioAssay data set” (2004).
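These data come from cells grown in 96-well plates and exposed to compound for 48 hours at five concentrations. GI50 is the concentration that inhibits growth by half.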 Calls of active or inactive are those of the source. No stated cut-off is given here; in the data, active = GI50 up to about 1.1 µM and inactive = higher.

Assays:
Assay in all cases: NCI tumour cell line growth inhibition, 48 h
[1] = test system: SW-620
[2] = test system: LOX IMVI
[3] = test system: RPMI-8226
[4] = test system: MOLT-4
[5] = test system: HCT-15
[6] = test system: CAKI-1
[7] = test system: CCRF-CEM
[8] = test system: MDA-N
[9] = test system: NCI-H522
[10] = test system: U-251
[11] = test system: UACC-62
[12] = test system: OVCAR-5
[13] = test system: HCC 2998
[14] = test system: SK-MEL-28
[15] = test system: UO-31
[16] = test system: HT-29
[17] = test system: Malme-3M
[18] = test system: HCT-116
[19] = test system: PC-3
[20] = test system: SF-268
[21] = test system: Hs-578T
[22] = test system: IGROV-1
[23] = test system: OVCAR-8
[24] = test system: SNB-75
[25] = test system: TK-10
[26] = test system: ACHN
[27] = test system: SF-539
[28] = test system: HOP-92
[29] = test system: DU-145
[30] = test system: SK-MEL-2
[31] = test system: HL-60
[32] = test system: HOP-62
[33] = test system: MDA-MB-231
[34] = test system: BT-549
[35] = test system: MDA-MB-435
[36] = test system: K562
[37] = test system: 786-0
[38] = test system: EKVX
[39] = test system: MCF7
[40] = test system: M14
[41] = test system: SF-295
[42] = test system: A498
[43] = test system: NCI-H23
[44] = test system: OVCAR-3
[45] = test system: RXF 393
[46] = test system: OVCAR-4
[47] = test system: NCI/ADR-RES
[48] = test system: SK-MEL-5
[49] = test system: KM12
[50] = test system: SNB-19
[51] = test system: SK-OV-3
[52] = test system: A549
[53] = test system: COLO 205
[54] = test system: NCI-H460
[55] = test system: UACC-257
[56] = test system: T47D
[57] = test system: SN12C
[58] = test system: NCI-H226

`OC(c1ccc(Br)cc1)(c1cccs1)C1CC1` (stereo not given) was tested, and the GI50 [1] was 30.5 µM (inactive), the GI50 [2] was 21.1 µM (inactive) and the GI50 [3] was 21.6 µM (inactive). The GI50 [4] was 22.1 µM (inactive), the GI50 [5] was 25.4 µM and the GI50 [6] was 20.8 µM (inactive). The GI50 [7] was 26.2 µM (inactive), the GI50 [8] was 20.7 µM (inactive) and the GI50 [9] was 18.5 µM (inactive). For the same molecule, the GI50 [10] was 17.8 µM (inactive), the GI50 [11] was 16.4 µM (inactive) and the GI50 [12] was 26.7 µM (inactive). For the same molecule, the GI50 [13] was 23.6 µM (inactive), the GI50 [14] was 22.2 µM (inactive) and the GI50 [15] was 26.7 µM (inactive). For the same molecule, the GI50 [16] was 23.4 µM (inactive), the GI50 [17] was 20.5 µM (inactive) and the GI50 [18] was 16.3 µM (inactive). For the same molecule, the GI50 [19] was 22.8 µM (inactive), the GI50 [20] was 20.7 µM (inactive) and the GI50 [21] was 22.3 µM (inactive). For the same molecule, the GI50 [22] was 15.7 µM (inactive), the GI50 [23] was 24.4 µM (inactive) and the GI50 [24] was 25.8 µM (inactive). For the same molecule, the GI50 [25] was 27.9 µM (inactive), the GI50 [26] was 27 µM (inactive) and the GI50 [27] was 21.4 µM (inactive). The GI50 [28] was 19.7 µM (inactive), the GI50 [29] was 26.1 µM (inactive) and the GI50 [30] was 20.4 µM (inactive). For the same molecule, the GI50 [31] was 20.8 µM (inactive), the GI50 [32] was 23.3 µM (inactive) and the GI50 [33] was 18.3 µM (inactive). For the same molecule, the GI50 [34] was 24.4 µM (inactive), the GI50 [35] was 18.1 µM (inactive) and the GI50 [36] was 29.9 µM (inactive). For the same molecule, the GI50 [37] was 18.3 µM (inactive), the GI50 [38] was 31.3 µM (inactive) and the GI50 [39] was 28.2 µM (inactive). For the same molecule, the GI50 [40] was 21.1 µM (inactive), the GI50 [41] was 21.6 µM (inactive) and the GI50 [42] was 21.5 µM (inactive). The GI50 [43] was 22.4 µM (inactive), the GI50 [44] was 18.8 µM (inactive) and the GI50 [45] was 18.6 µM (inactive). For the same molecule, the GI50 [46] was 22.7 µM (inactive), the GI50 [47] was 25.1 µM (inactive) and the GI50 [48] was 18.7 µM (inactive). For the same molecule, the GI50 [49] was 17.7 µM (inactive), the GI50 [50] was 41.1 µM (inactive) and the GI50 [51] was 36.4 µM (inactive). For the same molecule, the GI50 [52] was 35.7 µM (inactive), the GI50 [53] was 19.2 µM (inactive) and the GI50 [54] was 22.4 µM (inactive). The GI50 [55] was 27 µM (inactive) and the GI50 [56] was 22.8 µM (inactive).
For `CCN1C(=O)C(=C/C=C/c2ccc([N+](=O)[O-])cc2)C(=O)N(CC)C1=S`, the GI50 [1] was 19.1 µM (inactive), the GI50 [2] was 18.3 µM (inactive) and the GI50 [3] was 30.8 µM (inactive). The GI50 [4] was 29.6 µM (inactive), the GI50 [5] was 29.5 µM and the GI50 [6] was 26.4 µM (inactive). For the same molecule, the GI50 [7] was 31.8 µM (inactive), the GI50 [8] was 24.4 µM (inactive) and the GI50 [10] was 18.5 µM (inactive). The GI50 [11] was 18.9 µM (inactive), the GI50 [12] was > 100 µM (inactive) and the GI50 [13] was 43.4 µM (inactive). For the same molecule, the GI50 [14] was 18 µM (inactive), the GI50 [15] was 18.8 µM (inactive) and the GI50 [16] was 19.7 µM (inactive). For the same molecule, the GI50 [18] was 17.6 µM (inactive), the GI50 [57] was 21.5 µM (inactive) and the GI50 [19] was 19.3 µM (inactive). The GI50 [20] was 19.3 µM (inactive), the GI50 [21] was 15.3 µM (inactive) and the GI50 [22] was 15.1 µM (inactive). The GI50 [23] was 20.9 µM (inactive), the GI50 [25] was 19.4 µM (inactive) and the GI50 [26] was 18.1 µM (inactive). The GI50 [27] was 21.2 µM (inactive), the GI50 [28] was 18.3 µM (inactive) and the GI50 [29] was 17.6 µM (inactive). The GI50 [30] was 23.8 µM (inactive), the GI50 [58] was 25.4 µM (inactive) and the GI50 [31] was 82.6 µM (inactive). The GI50 [32] was 19.1 µM (inactive), the GI50 [33] was 21.3 µM (inactive) and the GI50 [34] was 16.5 µM (inactive). The GI50 [35] was 23.4 µM (inactive), the GI50 [36] was 20.1 µM (inactive) and the GI50 [37] was 18.6 µM (inactive). The GI50 [38] was 21 µM (inactive), the GI50 [39] was 23.6 µM (inactive) and the GI50 [40] was 29 µM (inactive). For the same molecule, the GI50 [41] was > 100 µM (inactive), the GI50 [43] was 18.2 µM (inactive) and the GI50 [44] was 17.8 µM (inactive). The GI50 [45] was 17 µM (inactive), the GI50 [46] was 33 µM (inactive) and the GI50 [47] was 19.5 µM (inactive). The GI50 [48] was 20.8 µM (inactive), the GI50 [49] was 22.3 µM (inactive) and the GI50 [50] was 37.9 µM (inactive). For the same molecule, the GI50 [51] was > 100 µM (inactive), the GI50 [52] was > 100 µM (inactive) and the GI50 [53] was 35.1 µM (inactive). For the same molecule, the GI50 [54] was 61.8 µM (inactive), the GI50 [55] was 17.6 µM (inactive) and the GI50 [56] was > 100 µM (inactive).
